Data set [1] concerns P. falciparum parasites (W2 strain). Kind of data set: Growth inhibition of cultured P. falciparum parasites (antiplasmodial activity). It is filed as cell-based. As to conditions: Plasmodium falciparum, Erythrocyte, in human red blood cells, 48 h incubation, flow cytometry, read-out: IC50 against cultured P. falciparum parasites. Here is the method: Plasmodium falciparum EC50 Determinations
The growth inhibition assay for P. falciparum was conducted as described previously with minor modifications. Briefly, P. falciparum strain W2 synchronized ring-stage parasites were cultured in human red blood cells in 96-well flat-bottom culture plates at 37° C., adjusted to 1% parasitemia and 2% hematocrit under an atmosphere of 3% O2, 5% CO2, and […] in a final volume of 0.1 mL per well in RPMI-1640 media supplemented with 0.5% Albumax, 2 mM L-glutamine, and […] in the presence of various concentrations of inhibitors. […] Following 48 h of incubation, the cells were fixed by adding 0.1 mL of 2% formaldehyde in phosphate buffered saline, pH=7.4 (PBS). Parasite growth was evaluated by flow cytometry on a FACsort (Becton Dickinson) equipped with AMS-1 loader (Cytek Development) after staining with 1 nM of the DNA dye YOYO-1 (Molecular Probes) in 100 mM NH4Cl, 0.1% Triton x-100 in 0.8% NaCl. Parasitemias were determined from dot plots (forward scatter vs fluorescence) using CELLQUEST software (Becton Dickinson). EC50 values for growth inhibition were determined from plots of percentage control parasitemia over inhibitor concentration using GraphPad Prism software.
(In general: Flow cytometry measures light scatter and fluorescence of single cells or particles in a stream.)

Data set [2] can be described thus: Fe(II)-fragmentation assay followed by UPLC/MS. It counts as physicochemical. To be noted: ferrous-ammonium sulfate with pH 7.4 Tris buffer; for fragmentation of the trioxolane / conversion to the common cyclohexanone intermediate A on exposure to Fe^2+: UPLC/MS. Here is the method: Fe(II)-Fragmentation Assay To 1 mL of trioxolane analog in DMSO (1 mM) at 37° C. was added 1 mL of Tris containing 50 mM ferrous ammonium sulfate. At various time points, 40 μL aliquots of the resulting mixture were removed and spun down in a mini centrifuge for 20 seconds, 20 μL of the supernatant was removed and 5 μL was injected into the UPLC. The concentration of the fragments was determined by UV from UPLC (290 nm). The resulting UV curves were plotted using GraphPad Prism software.

The values below come from patent US20250009889A1, “CYCLIC PEROXIDES AS PRODRUGS FOR SELECTIVE DELIVERY OF AGENTS” (The Regents of the University of California, priority 2021, published 2025).

“Also recorded” adds a separate entry of the source. Where only a bound is given, the exact number is not on record here.

In the case of `O=C(O[C@@H]1CCC[C@]2(C1)OOC1(CC3CCC1C3)O2)N1CCCCC1C(O)c1cc(C(F)(F)F)nc2c(C(F)(F)F)cccc12` (stereo partly drawn) [6f], in data set [1], the IC50 came to 0.074 µM. For the same compound, in data set [2], the “alternate bicyclo[2.2.1]heptan-2-one product detected (regioselectivity of peroxide scission)” value is recorded as “No detectable quantity” and the “rate of conversion to intermediate A relative to comparator 6a” value is “moderately faster”. In addition, in data set [2] (37° C.), the “time point by which the conjugate is fully consumed” value is ≤ 11 min and the “fragmentation of the trioxolane / conversion to the common cyclohexanone intermediate A on exposure to Fe^2+” value is “rapid; also recorded: within minutes to clean conversion”.
In the case of `O=C(O[C@@H]1CCC[C@]2(C1)OOC1(O2)C2CC3CC(C2)CC1C3)N1CCCCC1C(O)c1cc(C(F)(F)F)nc2c(C(F)(F)F)cccc12` (stereo partly drawn) [6a, reference compound], the IC50 in data set [1] turned out to be 0.017 µM. The “fragmentation of the trioxolane / conversion to the common cyclohexanone intermediate A on exposure to Fe^2+” value in data set [2] (37° C.) was “rapid; also recorded: within minutes to clean conversion”.
`O=C(O[C@@H]1CCC[C@]2(C1)OOC1(CC3CCC1CC3)O2)N1CCCCC1C(O)c1cc(C(F)(F)F)nc2c(C(F)(F)F)cccc12` (stereo partly drawn) [6g]: in data set [1], the IC50 is 0.024 µM.
In the case of `O=C(O[C@@H]1CCC[C@]2(C1)OOC1(O2)C2CCCC1CCC2)N1CCCCC1C(O)c1cc(C(F)(F)F)nc2c(C(F)(F)F)cccc12` (stereo partly drawn) [6h], the half-maximal inhibitory concentration (IC50) in data set [1] is 0.024 µM.

One may read the IC50 as the point on the concentration scale where inhibition reaches its midpoint.
